In assay [1] the target is T1, human PTEFb (CDK9/Cyclin T1) (Homo sapiens, UniProt P50750).
T1 construct: purchased ProQinase, Freiburg, Germany
The experiment in a line: Surface Plasmon Resonance PTEFb (Method 8). The assay is classed as binding. The conditions noted are these: 25° C., experimental parameters A-G per value; for Target resident time: 1/koff; for koff: read-out: Dissociation rate constant koff. The source says: 8. Surface Plasmon Resonance PTEFb
The ability of the compounds according to the invention to bind human PTEFb may be determined using surface plasmon resonance (SPR). KD values and koff values may be measured using a Biacore® T200 instrument (GE Healthcare, Uppsala, Sweden).
For SPR measurements, recombinant human PTEFb (CDK9/Cyclin T1 recombinant human active protein kinase purchased from ProQinase, Freiburg, Germany) is immobilized using standard amine coupling (Johnsson B et al, Anal Biochem. 1991 Nov. 1; 198(2):268-77). Briefly, carboxymethylated dextran biosensor chips (CM7, GE Healthcare) are activated with N-ethyl-N′-(3-dimethylaminopropyl)-carbodiimide hydrochloride (EDC) and N-hydroxysuccinimide (NHS) according to the supplier's instructions. Human PTEFb is diluted in 1×HBS-EP+ (GE Healthcare) and injected on the activated chip surface. Subsequently, a 1:1 solution of 1 M ethanolamine-HCl (GE Healthcare) and 1×HBS-EP is injected to block unreacted groups, resulting in approximately 4000 response units (RU) of immobilized protein. A reference surface is generated by treatment with NHS-EDC and ethanolamine-HCl. Compounds are dissolved in 100% dimethylsulfoxide (DMSO, Sigma-Aldrich, Germany) to a concentration of 10 mM and subsequently diluted in running buffer (1×HBS-EP+ pH 7.4 [generated from HBS-EP+ Buffer 10× (GE Healthcare): 0.1 M HEPES, 1.5 M NaCl, 30 mM EDTA and 0.5% v/v Surfactant P20], 1% v/v DMSO). For kinetic measurements, serial dilutions of compound (0.82 nM up to 2 μM) are injected over immobilized protein. Binding kinetics is measured at 25° C. with a flow rate of 50 μl/min in running buffer. Compound concentrations are injected for 60 s followed by a dissociation time of 1800 s. The resulting sensorgrams are double-referenced against the reference surface as well as against blank injections.
The double-referenced sensorgrams are fit to a simple reversible Langmuir 1:1 reaction mechanism as implemented in the Biacore® T200 evaluation software 2.0 (GE Healthcare). In cases were full compound dissociation has not occurred at the end of the dissociation phase, the Rmax parameter (response at saturation) is fit as local variable. In all other cases, Rmax is fit as global variable.
Slight variations of experimental parameters are indicated by letters (A-G): […]

The target of assay [2] is T1, human PTEFb (CDK9/Cyclin T1). The experiment in a line: Surface Plasmon Resonance PTEFb (Method 8). The assay is classed as binding. As to conditions: 37° C., experimental parameters E; for Target resident time: 1/koff; for koff: read-out: Dissociation rate constant koff.

We go through 12 compounds from patent publication US10214542B2, “Modified macrocyclic compounds” (BAYER PHARMA AKTIENGESELLSCHAFT, priority 2015, dated 2019).

Several values for one entry are separate records, joined by “and”; a condition that tells them apart may be missing. Identical values can stand only once. Like-named read-outs stand apart in the source and are kept apart here. Marks after values point to notes of the source that are not given here.

T1 sequence (P50750 whole entry): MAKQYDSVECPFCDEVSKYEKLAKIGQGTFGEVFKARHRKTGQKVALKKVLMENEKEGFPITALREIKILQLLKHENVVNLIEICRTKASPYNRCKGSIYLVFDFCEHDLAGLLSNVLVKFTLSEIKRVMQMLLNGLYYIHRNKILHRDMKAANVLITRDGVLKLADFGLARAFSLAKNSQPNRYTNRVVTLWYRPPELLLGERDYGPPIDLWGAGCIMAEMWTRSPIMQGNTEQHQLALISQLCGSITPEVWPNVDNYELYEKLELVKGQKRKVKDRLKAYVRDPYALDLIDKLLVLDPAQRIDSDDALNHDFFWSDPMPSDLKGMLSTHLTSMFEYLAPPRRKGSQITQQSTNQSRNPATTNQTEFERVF
T1 sequence (O60563 whole entry partner): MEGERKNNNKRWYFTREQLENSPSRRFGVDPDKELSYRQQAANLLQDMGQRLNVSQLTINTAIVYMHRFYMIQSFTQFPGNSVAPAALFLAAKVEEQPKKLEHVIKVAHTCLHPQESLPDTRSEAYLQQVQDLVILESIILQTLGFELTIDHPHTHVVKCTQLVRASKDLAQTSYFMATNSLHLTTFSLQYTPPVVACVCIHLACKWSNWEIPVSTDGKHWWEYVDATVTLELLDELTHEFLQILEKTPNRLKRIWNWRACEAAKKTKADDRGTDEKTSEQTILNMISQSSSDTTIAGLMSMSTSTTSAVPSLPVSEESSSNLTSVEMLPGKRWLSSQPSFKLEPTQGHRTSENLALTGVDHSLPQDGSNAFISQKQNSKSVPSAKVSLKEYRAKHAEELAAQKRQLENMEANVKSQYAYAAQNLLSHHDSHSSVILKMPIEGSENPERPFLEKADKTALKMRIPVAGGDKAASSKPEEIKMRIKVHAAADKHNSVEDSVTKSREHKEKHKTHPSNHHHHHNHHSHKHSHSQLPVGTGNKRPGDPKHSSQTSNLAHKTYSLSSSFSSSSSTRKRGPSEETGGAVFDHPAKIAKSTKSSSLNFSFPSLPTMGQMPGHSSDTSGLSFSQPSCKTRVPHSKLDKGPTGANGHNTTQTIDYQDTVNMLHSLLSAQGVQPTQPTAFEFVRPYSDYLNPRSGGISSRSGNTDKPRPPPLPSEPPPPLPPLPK

In the case of `CC(C)(C)OC(=O)N=S(C)(=O)Cc1cc2nc(c1)Nc1cc(c(F)cn1)-c1ccc(F)cc1OCCCN2` (racemic) [Example 7, (rac)-tert-butyl[{[15,19-difluoro-2,3,4,5-tetrahydro-11H-10,6-(azeno)-16,12-(metheno)-1,5,11,13-benzoxatriazacyclooctadecin-8-yl]methyl}(methyl)oxido-λ^6-sulfanylidene]carbamate], in assay [1], the Target resident time is listed as >666* min and the koff is below 2.5e-05 s⁻¹.
As for `CSCc1cc2nc(c1)OCCCCc1cc(F)ccc1-c1cc(ncc1F)N2` [Example 4, 2,18-Difluoro-9-[(methylsulfanyl)methyl]-13,14,15,16-tetrahydro-6H-7,11-(azeno)-5,1-(metheno)-12,4,6-benzoxadiazacyclooctadecine], in assay [1], the Target resident time was 14.6 min and the koff is 0.00114 s⁻¹.
On to `CS(=N)(=O)Cc1cc2nc(c1)OCCCCCc1cc(F)ccc1-c1cc(ncc1F)N2` (racemic) [Example 20, (rac)-2,19-difluoro-9-[(S-methylsulfonimidoyl)methyl]-14,15,16,17-tetrahydro-6H,13H-7,11-(azeno)-5,1-(metheno)-12,4,6-benzoxadiazacyclononadecine], for which, in assay [1], the Target resident time is recorded as 14.7* min and the koff was 0.00113 s⁻¹.
On to `CS(=N)(=O)Cc1cc2cc(c1)OCCCCSc1cc(F)ccc1-c1nc(ncc1F)N2` (racemic) [Example 22, (rac)-16,20-difluoro-9-[(S-methylsulfonimidoyl)methyl]-2,3,4,5-tetrahydro-12H-17,13-(azeno)-11,7-(metheno)-6,1,12,14-benzoxathiadiazacyclononadecine], for which, in assay [2], the Target resident time was 17.5* min and the koff stood at 0.000954 s⁻¹.
For `CN1CCCCNc2cc(F)ccc2-c2nc(ncc2F)Nc2cc(CS(C)(=N)=O)cc1c2.O=CO` (racemic) [Example 17, (rac)-16,20-difluoro-6-methyl-9-[(S-methylsulfonimidoyl)methyl]-1,2,3,4,5,6-hexahydro-12H-17,13-(azeno)-11,7-(metheno)-1,6,12,14-benzotetraazacyclononadecine; salt with formic acid], in assay [2], the Target resident time is 115.7* min and the koff stood at 0.000144 s⁻¹.
For the compound `CS(=O)(Cc1cc2nc(c1)Nc1cc(c(F)cn1)-c1ccc(F)cc1OCCCCN2)=NC(=O)OCc1ccccc1` (racemic) [Example 2, (rac)-Benzyl[{[16,20-difluoro-3,4,5,6-tetrahydro-2H,12H-11,7-(azeno)-13,17-(metheno)-1,6,12,14-benzoxatriazacyclononadecin-9-yl]methyl}(methyl)oxido-λ^6-sulfanylidene]carbamate], in assay [1], the Target resident time is 44.9 min and 33.1 min; the “Dissociation rate constant koff” value was 0.000504 s⁻¹; the koff was 0.000371 s⁻¹.
Turning to `CN1CCCCOc2cc(F)ccc2-c2cc(ncc2F)Nc2cc(CS(C)(=N)=O)cc1n2` (racemic) [Example 11, (rac)-16,20-difluoro-6-methyl-9-[(S-methylsulfonimidoyl)methyl]-3,4,5,6-tetrahydro-2H-7,11-(azeno)-17,13-(metheno)-1,6,12,14-benzoxatriazacyclononadecine], in assay [1], the Target resident time is >666* min and the dissociation rate constant (koff) was below 2.5e-05 s⁻¹.
With `CS(=N)(=O)Cc1cc2cc(c1)OCCCCNc1cc(F)ccc1-c1nc(ncc1F)N2` (racemic) [Example 16, (rac)-16,20-difluoro-9-[(S-methylsulfonimidoyl)methyl]-2,3,4,5-tetrahydro-1H-17,13-(azeno)-7,11-(metheno)-6,1,12,14-benzoxatriazacyclononadecine], in assay [2], the Target resident time is 46.3* min and the koff came out at 0.00036 s⁻¹.
For the compound `C[S+]([O-])Cc1cc2nc(c1)OCCCCc1cc(F)ccc1-c1cc(ncc1F)N2` (racemic) [Example 5, (rac)-2,18-Difluoro-9-[(methylsulfinyl)methyl]-13,14,15,16-tetrahydro-6H-7,11-(azeno)-5,1-(metheno)-12,4,6-benzoxadiazacyclooctadecine], in assay [1], the Target resident time is 17.2 min and the koff amounted to 0.000968 s⁻¹.
In the case of `C[S+]([O-])Cc1cc2nc(c1)OCCCCCc1cc(F)ccc1-c1cc(ncc1F)N2` (racemic) [Example 19, (rac)-2,19-difluoro-9-[(methylsulfinyl)methyl]-14,15,16,17-tetrahydro-6H,13H-7,11-(azeno)-5,1-(metheno)-12,4,6-benzoxadiazacyclononadecine], in assay [1], the Target resident time is on record as 4.8* min and the off-rate constant (koff) was 0.00345 s⁻¹.
For `CN1CCCCOc2cc(F)ccc2-c2nc(ncc2F)Nc2cc(CS(C)(=N)=O)cc1c2` (racemic) [Example 23, (rac)-16,20-difluoro-6-methyl-9-[(S-methylsulfonimidoyl)methyl]-3,4,5,6-tetrahydro-2H,12H-13,17-(azeno)-11,7-(metheno)-1,6,12,14-benzoxatriazacyclononadecine], in that order: 87.3* min and 0.000191 s⁻¹.
`CC(C)(C)OC(=O)N=S(C)(=O)Cc1cc2cc(c1)OCCCCNc1cc(F)ccc1-c1nc(ncc1F)N2` (racemic) [Example 15, (rac)-tert-butyl[{[16,20-difluoro-2,3,4,5-tetrahydro-1H,12H-13,17-(azeno)-11,7-(metheno)-6,1,12,14-benzoxatriazacyclononadecin-9-yl]methyl}(methyl)oxido-λ^6-sulfanylidene]carbamate]: in assay [1], the Target resident time was > 666 min and 372.9 min; the “Dissociation rate constant koff” value is 4.47e-05 s⁻¹; the koff was below 2.5e-05 s⁻¹.

As a reminder, the koff is the first-order rate constant of dissociation.
